# Test results taken from publication PMC12670426 (Journal of Medicinal Chemistry, 2025).
# Where two headings read alike, the source gives them in different places.
# Columns and labels:
# [1] = target: T1, human galectin-1 (Gal-1, full length) (Homo sapiens, UniProt P09382); assay: Competitive fluorescence polarization assay, Gal-1; assay type: binding
# T1 construct: Gal-1 is a prototype galectin consisting of a single CRD and was used in full length; 6xHis tag with TEV protease site (N, cleaved yes); made in house; host or cells: BL21 Escherichia coli (pET-15b)
# T1 sequence (P09382 2-135): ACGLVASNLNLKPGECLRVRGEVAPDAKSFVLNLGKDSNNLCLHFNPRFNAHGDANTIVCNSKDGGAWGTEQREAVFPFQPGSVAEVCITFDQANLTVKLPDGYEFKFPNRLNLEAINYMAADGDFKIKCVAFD
# Experimental: (§1) Our investigation of the structure–activity relationship of N-aryl-N-lactosylamides started with an initial screening of substituted acetanilides (Table ). These compounds can be readily synthesized from a wide range of commercially available substituted anilines. Affinity was evaluated using a fluorescence polarization assay, which enables reliable determination of dissociation constants (K d) between small molecules and galectins. All inhibitors in this series were tested against the two most common human galectins: Gal-1 and Gal-3. Gal-1 is a prototype galectin consisting of a single CRD and was used in full length. In the case of Gal-3, which consists of the C-terminal CRD and N-terminal unfolded region, only the C-terminal domain was used (Gal-3C). Affinities were compared to methyl β-lactoside (β-LacOMe) as a baseline.
# (§2) Fluorescence polarization experiments for determining inhibitor affinities were performed using the same instrumentation and settings as described for the direct binding experiments. […] The galectin–probe mixture was subsequently added using a Certus Flex liquid handler (Fritz Gyger AG, Switzerland) to reach a final volume of 5 μL. Anisotropy was measured after 30–60 min incubation at 25 °C. Inhibitor dissociation constants (K d) were calculated using Wang’s exact cubic model for competitive binding implemented in the BindCurve package. Protein and probe concentrations used in these competitive experiments are provided in the Supporting Information.
# (§3) Competitive binding was modeled by Wang’s exact cubic model,3 which is written as […]
# (§4) r = rmin + (rmax − rmin) 3 (6) […]
# (§5) where r, rmin and rmax have the same meaning as in Equation 1. The coefficients a, b, and c are […]
# (§6) a = Kd∗ + Kd + [L∗]T + [L]T − [R]T (7) b = Kd∗([L]T − [R]T) + Kd([L∗]T − [R]T) + Kd∗ Kd (8) […]
# (§7) where Kd∗ is the dissociation constant of the probe, Kd is the dissociation constant of the […]
# (§8) the unlabeled ligand, and [R]T is the total concentration of the receptor. The angle θ is defined […]
# (§9) In the competitive binding experiments, the values of [L∗]T, [R]T and Kd∗ are known and [L]T is titrated. The values of minimal and maximal anisotropy rmin and rmax were fixed during fitting at the values of the minimal and maximal asymptotes obtained from the direct binding experiments. The value of Kd was calculated as the only unfixed parameter in the model.
# (§10) Experimental constants used for the competitive fluorescence polarization experiments are […]
# (§11) Table S2. Experimental constants used for competitive fluorescence polarization experiments. […]
# [2] = target: T2, human galectin-3C (Gal-3C, C-terminal CRD of galectin-3) (Homo sapiens, UniProt P17931); assay: Competitive fluorescence polarization assay, Gal-3C; assay type: binding
# T2 construct: only the C-terminal domain was used (Gal-3C); 6xHis tag with TEV protease site (N, cleaved yes); made in house; host or cells: BL21 Escherichia coli (pET-15b)
# T2 sequence (P17931 118-248 limits assumed): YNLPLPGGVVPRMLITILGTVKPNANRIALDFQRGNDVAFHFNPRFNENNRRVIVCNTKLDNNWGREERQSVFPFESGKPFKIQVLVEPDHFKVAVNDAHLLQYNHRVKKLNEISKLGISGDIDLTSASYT
# Experimental: as §1, §2, §3, §4, §5, §6, §7, §8, §9, §10, §11
# [3] = Plasma stability assay, human plasma; assay type: in vitro ADME; conditions: pooled plasma, 37 °C
# Experimental: (§12) Test compounds (10 μM) were incubated with mouse, rat, or human pooled plasma from 50 donors (Biowest) at 37 °C for 20, 60, and 120 min. Reactions were terminated by adding four volumes of ice-cold methanol, followed by vigorous mixing. Samples were kept at −20 °C for 30 min and then stored at 4 °C overnight. The next day, samples were centrifuged, and supernatants were diluted with four volumes of 30% methanol in water. Zero time points were prepared by adding ice-cold methanol to the compound prior to the addition of plasma. Samples were then analyzed on an Echo MS system (SCIEX) using multiple reaction monitoring (MRM). The only exception was compound 3af, which was analyzed by LC–MS/MS (SCIEX 6500 triple quadrupole) due to its weak ionization in Echo-MS.
# [4] = Plasma stability assay, mouse plasma; assay type: in vitro ADME; conditions: 37 °C
# Experimental: as §12
# [5] = Plasma stability assay, rat plasma; assay type: in vitro ADME; conditions: 37 °C
# Experimental: as §12
# [6] = Microsomal stability assay, human liver microsomes; assay type: in vitro ADME; conditions: pooled liver microsomes, pH 7.4, human liver microsomes 0.5 mg/mL, NADPH
# Experimental: (§13) Microsomal stability was determined using 0.5 mg/mL of pooled human, mouse, or rat liver microsomes (Thermo Fisher Scientific) in 90 mM TRIS-Cl buffer (pH 7.4) containing 2 mM NADPH and 2 mM MgCl2. Test compounds (10 μM) were added, and the resulting mixture was incubated at 37 °C for 10, 60, 120, and 180 min. The reactions were terminated by the addition of four volumes of ice-cold methanol, followed by vigorous mixing. The samples were left at −20 °C for 30 min and then stored at 4 °C overnight. The next day, samples were centrifuged, and supernatants were diluted with four volumes of 30% methanol in water. Zero time points were prepared by adding ice-cold methanol to the mixture of compounds and cofactors prior to the addition of microsomes. The samples were then analyzed using the Echo-MS system (SCIEX) with MRM transition monitoring, except for compound 3af, which was analyzed by LC–MS/MS as described in the plasma stability assay.
# [7] = Microsomal stability assay, mouse liver microsomes; assay type: in vitro ADME; conditions: pooled liver microsomes, pH 7.4, mouse liver microsomes 0.5 mg/mL, NADPH
# Experimental: as §13
# [8] = Microsomal stability assay, rat liver microsomes; assay type: in vitro ADME; conditions: pooled liver microsomes, pH 7.4, rat liver microsomes 0.5 mg/mL, NADPH
# Experimental: as §13
# [9] = Plasma protein binding assay (rapid equilibrium dialysis), human plasma; assay type: in vitro ADME; conditions: fraction bound, read-out: plasma protein binding Fb human (converted)
# Experimental: (§14) Test compound (10 μM) was incubated at 37 °C for 4 h with mouse, rat, or human plasma (Biowest) in the donor well of a rapid equilibrium dialysis plate (Thermo Fisher Scientific). PBS was placed in the acceptor well. To stop the assay, samples were collected from both wells, and an equal volume of plasma was added to the PBS sample, and vice versa. Proteins were then precipitated by adding three volumes of ice-cold methanol. Samples were mixed gently, kept at −20 °C for 30 min, and then stored at 4 °C overnight. The next day, the samples were centrifuged, and the supernatants were diluted with four volumes of 30% methanol in water. The samples were then analyzed using the Echo-MS system (SCIEX) with MRM transition monitoring, except for compound 3af, which was analyzed by LC–MS/MS as described in the plasma stability assay.
# [10] = Plasma protein binding assay (rapid equilibrium dialysis), mouse plasma; assay type: in vitro ADME; conditions: fraction bound, read-out: plasma protein binding Fb mouse (converted)
# Experimental: as §14
# [11] = Plasma protein binding assay (rapid equilibrium dialysis), rat plasma; assay type: in vitro ADME; conditions: fraction bound, read-out: plasma protein binding Fb rat (converted)
# Experimental: as §14
# [12] = Plasma protein binding, summary across species; assay type: in vitro ADME; conditions: summary across human, mouse and rat plasma
# Experimental: as §14
# [13] = Kinetic solubility assay in PBS; assay type: physicochemical; conditions: aqueous buffer, kinetic from dmso stock; PBS at pH 7.4, 100 μM final, 2 h room temperature
# Experimental: The solutions were incubated at room temperature for 2 h and filtered by centrifugation. Filtrates were diluted 100-fold with 50% acetonitrile in water and then analyzed on the Echo-MS system (SCIEX) using MRM transition monitoring, except for compound 3af, which was analyzed by LC–MS/MS as described in the plasma stability assay. Compound concentrations were quantified against calibration curves prepared in the identical matrix as the samples.
# [14] = CSV supplement, unrounded mean, read-out: Gal1_IC50_mean_uM
# [15] = CSV supplement, unrounded mean, read-out: Gal1_Kd_mean_uM
# [16] = competitive fluorescence polarization, mean ± SD, read-out: Kd Gal-1
# [17] = four-parameter logistic model, mean ± SD, read-out: IC50 Gal-1
# [18] = CSV supplement, unrounded mean, read-out: Gal3C_IC50_mean_uM
# [19] = CSV supplement, unrounded mean, read-out: Gal3C_Kd_mean_uM
# [20] = competitive fluorescence polarization, mean ± SD, read-out: Kd Gal-3C
# [21] = four-parameter logistic model, mean ± SD, read-out: IC50 Gal-3C
SMILES,"IC50 [1, 14] [µM]","Kd [1, 15] [µM]","Kd [1, 16] [µM]","IC50 [1, 17] [µM]","IC50 [2, 18] [µM]","Kd [2, 19] [µM]","Kd [2, 20] [µM]","IC50 [2, 21] [µM]","remaining at 2 h, 10 μM [3] [%]","remaining at 2 h, 10 μM [4] [%]","remaining at 2 h, 10 μM [5] [%]",microsomal CLint at 10 μM [6] [µL/min/mg],microsomal CLint at 10 μM [7] [µL/min/mg],microsomal CLint at 10 μM [8] [µL/min/mg],"fraction unbound at 4 h, 10 μM [9]","fraction unbound at 4 h, 10 μM [10]","fraction unbound at 4 h, 10 μM [11]","fraction unbound at 4 h, 10 μM [12]",solubility kinetic at 2 h [13] [µM],also measured
"CC(=O)N(c1cc(O)cc(C(=O)O)c1)[C@@H]1O[C@H](CO)[C@@H](O[C@@H]2O[C@H](CO)[C@H](O)[C@H](O)[C@H]2O)[C@H](O)[C@H]1O [Compound 3ad, N-[4-O-(β-D-Galactopyranosyl)-β-D-glucopyranosyl]-N-(3-carboxy-5-hydroxyphenyl)acetamide]",1240,737,740 ± 20,1200 ± 300,32.2,11.4,11 ± 2,32 ± 2,99 ± 8,110 ± 2,140 ± 7,< 2,< 2,< 2,0.94,0.93,0.94,> 0.9,> 100,
"CC(=O)N(c1cc(C(=O)O)cc2[nH]ccc12)[C@@H]1O[C@H](CO)[C@@H](O[C@@H]2O[C@H](CO)[C@H](O)[C@H](O)[C@H]2O)[C@H](O)[C@H]1O [Compound 3af, N-[4-O-(β-D-Galactopyranosyl)-β-D-glucopyranosyl]-N-(6-carboxy-1H-indol-4-yl)acetamide]",1530,846,850 ± 200,1500 ± 300,11.4,4.15,4.1 ± 0.4,11 ± 0.9,100,76,94,3,< 2,< 2,> 0.95,> 0.95,0.73,> 0.9,> 100,enhancement of affinity for Gal-3C compared to 3r ([2]; compared to 3r): 10 fold; improvement in affinity toward Gal-3C compared to 3a ([2]; compared to unsubstituted phenyl derivative 3a): 27 fold; improvement in affinity toward Gal-3C compared to β-LacOMe ([2]; compared to β-LacOMe): 56 fold; selectivity for Gal-3C over Gal-1 ([2]; ratio Kd (Gal-1)/Kd (Gal-3C)): more than 200 fold
"CC(=O)c1c[nH]c2cc(C(=O)O)cc(N(C(C)=O)[C@@H]3O[C@H](CO)[C@@H](S[C@@H]4O[C@H](CO)[C@H](O)[C@H](n5cc(-c6cccc(F)c6)nn5)[C@H]4O)[C@H](O)[C@H]3O)c12 [Compound 10, N-[4-S-(3-Deoxy-3-(4-(3-fluorophenyl)-1H-1,2,3-triazol-1-yl)-β-D-galactopyranosyl)-4-thio-β-D-glucopyranosyl]-N-(3-acetyl-6-carboxy-1H-indol-4-yl)acetamide]",7.16,3.62,3.6 ± 0.4,7.2 ± 0.6,0.154,0.0315,0.031 ± 0.004,0.15 ± 0.009,92 ± 6,89 ± 5,110 ± 5,< 2,< 2,< 2,0.66,0.78,0.75,0.1 to 0.78,> 100,
"CO[C@@H]1O[C@H](CO)[C@@H](O[C@@H]2O[C@H](CO)[C@H](O)[C@H](O)[C@H]2O)[C@H](O)[C@H]1O [β-LacOMe, methyl β-lactoside, reference compound]",1640,770,770 ± 200,1600 ± 70,756,234,230 ± 20,760 ± 90,,,,,,,,,,,,
